Drawing on BindingDB's records for doi:10.1021/jm960581w (Sphinx Laboratories, 1996), this text covers IC50 for 19 compounds.

What is called IC50 is the midpoint of a concentration-inhibition curve.

Where only a bound is given, the exact number is not on record here.

The target in the test is cAMP-dependent protein kinase catalytic subunit alpha (Bos taurus, UniProt P00517). The test is described as follows: PKA assay. As for the experimental part:
The activity of PKA, activated by cAMP, is measured by its ability to transfer phosphate from [gamma-32P]ATP to histone.
Take `O=C(NC(COC(=O)c1cc(O)c(C(=O)c2c(O)cccc2C(=O)O)c(O)c1)Cc1ccc(O)cc1)c1ccccc1` (racemic) [2-[(2,6-dihydroxy-4-{[3-(4-hydroxyphenyl)-2-(phenylformamido)propoxy]carbonyl}phenyl)carbonyl]-3-hydroxybenzoic acid]: the IC50 is over 50 µM.
Next, `CN(C)C(COC(=O)c1cc(O)c(C(=O)c2c(O)cccc2C(=O)O)c(O)c1)Cc1ccc(O)cc1` (racemic) [2-[(4-{[2-(dimethylamino)-3-(4-hydroxyphenyl)propoxy]carbonyl}-2,6-dihydroxyphenyl)carbonyl]-3-hydroxybenzoic acid]: over 50 µM; `O=C(OCC(NS(=O)(=O)c1ccccc1)c1ccc(O)cc1)c1cc(O)c(C(=O)c2c(O)cccc2C(=O)O)c(O)c1` (racemic) [2-[(4-{[2-benzenesulfonamido-2-(4-hydroxyphenyl)ethoxy]carbonyl}-2,6-dihydroxyphenyl)carbonyl]-3-hydroxybenzoic acid]: over 50 µM.
Then `O=C(OCC(COc1ccc(O)cc1)NS(=O)(=O)c1ccccc1)c1cc(O)c(C(=O)c2c(O)cccc2C(=O)O)c(O)c1` (racemic) [2-[(4-{[2-benzenesulfonamido-3-(4-hydroxyphenoxy)propoxy]carbonyl}-2,6-dihydroxyphenyl)carbonyl]-3-hydroxybenzoic acid], with over 50 µM; and `O=C(O[C@@H]1CCC[C@H]1Oc1ccc(O)cc1)c1cc(O)c(C(=O)c2c(O)cccc2C(=O)O)c(O)c1` (racemic) [2-{[2,6-dihydroxy-4-({[(1R,2R)-2-(4-hydroxyphenoxy)cyclopentyl]oxy}carbonyl)phenyl]carbonyl}-3-hydroxybenzoic acid], with over 50 µM; and `O=C(O[C@@H]1CCC[C@H]1Cc1ccc(O)cc1)c1cc(O)c(C(=O)c2c(O)cccc2C(=O)O)c(O)c1` (racemic) [2-{[2,6-dihydroxy-4-({[(1R,2S)-2-[(4-hydroxyphenyl)methyl]cyclopentyl]oxy}carbonyl)phenyl]carbonyl}-3-hydroxybenzoic acid], with over 50 µM.
`CS(=O)(=O)NC(COC(=O)c1cc(O)c(C(=O)c2c(O)cccc2C(=O)O)c(O)c1)Cc1ccc(O)cc1` (racemic) [(+-)-2-[[2,6-Dihydroxy-4-[[[3-(4-hydroxyphenyl)-2-[(methylsulfonyl)amino]propyl]oxy]carbonyl]phenyl]carbonyl]-3-hydroxybenzoic Acid] came in with an IC50 of over 50 µM.
In turn, `O=C(OCC(Cc1ccc(O)cc1)NS(=O)(=O)c1ccccc1)c1cc(O)c(C(=O)c2c(O)cccc2C(=O)O)c(O)c1` (racemic) [(+-)-2-[[2,6-Dihydroxy-4-[[[3-(4-hydroxyphenyl)-2-[(phenylsulfonyl)amino]propyl]oxy]carbonyl]phenyl]carbonyl]-3-hydroxybenzoic Acid] had an IC50 of over 50 µM.
As to `O=C(OCCCCc1ccc(O)cc1)c1cc(O)c(C(=O)c2c(O)cccc2C(=O)O)c(O)c1` [2-[(2,6-dihydroxy-4-{[4-(4-hydroxyphenyl)butoxy]carbonyl}phenyl)carbonyl]-3-hydroxybenzoic acid], the IC50 was over 50 µM.
`O=C(OC[C@@H](Cc1ccc(O)cc1)NS(=O)(=O)c1ccccc1)c1cc(O)c(C(=O)c2c(O)cccc2C(=O)O)c(O)c1` [2-[(4-{[(2R)-2-benzenesulfonamido-3-(4-hydroxyphenyl)propoxy]carbonyl}-2,6-dihydroxyphenyl)carbonyl]-3-hydroxybenzoic acid]: the IC50 was over 50 µM.
`O=C(OC[C@H](Cc1ccc(O)cc1)NS(=O)(=O)c1ccccc1)c1cc(O)c(C(=O)c2c(O)cccc2C(=O)O)c(O)c1` [2-[(4-{[(2S)-2-benzenesulfonamido-3-(4-hydroxyphenyl)propoxy]carbonyl}-2,6-dihydroxyphenyl)carbonyl]-3-hydroxybenzoic acid]: the half-maximal inhibitory concentration (IC50) was over 50 µM.
Next, `O=C(OCCCc1ccc(O)cc1)c1cc(O)c(C(=O)c2c(O)cccc2C(=O)O)c(O)c1` [2-[[2,6-Dihydroxy-4-[[[3-(4-hydroxyphenyl)propyl]oxy]carbonyl]phenyl]carbonyl]-3-hydroxybenzoic Acid]: over 50 µM; `O=C(O[C@@H]1CCC[C@@H]1Cc1ccc(O)cc1)c1cc(O)c(C(=O)c2c(O)cccc2C(=O)O)c(O)c1` [2-{[2,6-dihydroxy-4-({[(1R,2R)-2-[(4-hydroxyphenyl)methyl]cyclopentyl]oxy}carbonyl)phenyl]carbonyl}-3-hydroxybenzoic acid]: over 50 µM.
`Cc1ccc(S(=O)(=O)N2CCC[C@@H](OC(=O)c3cc(O)c(C(=O)c4c(O)cccc4C(=O)O)c(O)c3)[C@H](NC(=O)c3ccc(O)cc3)C2)cc1` [2-{[2,6-dihydroxy-4-({[(3R,4R)-3-[(4-hydroxybenzene)amido]-1-[(4-methylbenzene)sulfonyl]azepan-4-yl]oxy}carbonyl)phenyl]carbonyl}-3-hydroxybenzoic acid]: the IC50 was over 150 µM.
Then `COC(=O)c1cccc(O)c1C(=O)c1c(O)cc(C(=O)O[C@@H]2CCC[C@H]2Cc2ccc(O)cc2)cc1O` [(1R,2S)-2-[(4-hydroxyphenyl)methyl]cyclopentyl 3,5-dihydroxy-4-{[2-hydroxy-6-(methoxycarbonyl)phenyl]carbonyl}benzoate], with over 50 µM.
Turning to `CC(CCc1ccc(O)cc1)OC(=O)c1cc(O)c(C(=O)c2c(O)cccc2C(=O)O)c(O)c1` (stereo not drawn) [(+-)-2-[[2,6-Dihydroxy-4-[[[3-(4-hydroxyphenyl)-1-methylpropyl]oxy]carbonyl]phenyl]carbonyl]-3-hydroxybenzoic Acid], the half-maximal inhibitory concentration (IC50) was over 50 µM.
As for `O=C(OCC(Cc1ccc(O)cc1)NS(=O)(=O)c1ccc2ccccc2c1)c1cc(O)c(C(=O)c2c(O)cccc2C(=O)O)c(O)c1` (stereo not drawn) [(+-)-2-[[2,6-Dihydroxy-4-[[[3-(4-hydroxyphenyl)-2-[(naphthylsulfonyl)amino]propyl]oxy]carbonyl]phenyl]carbonyl]-3-hydroxybenzoic Acid], the IC50 was over 50 µM.
Next, `O=C(NC(COC(=O)c1cc(O)c(C(=O)c2c(O)cccc2C(=O)O)c(O)c1)Cc1ccc(O)cc1)c1ccc(O)cc1` (stereo not drawn) [(+-)-2-[[2,6-Dihydroxy-4-[[[3-(4-hydroxyphenyl)-2-[[(4-hydroxyphenyl)carbonyl]amino]propyl]oxy]carbonyl]phenyl]carbonyl]-3-hydroxybenzoic Acid]: over 50 µM; `COC(=O)c1cccc(O)c1C(=O)c1c(O)cc(C(=O)OC[C@H](Cc2ccc(O)cc2)NS(=O)(=O)c2ccccc2)cc1O` [(S)-Methyl 2-[[2,6-Dihydroxy-4-[[[3-(4-hydroxyphenyl)-2-[(phenylsulfonyl)amino]propyl]oxy]carbonyl]phenyl]carbonyl]-3-hydroxybenzoate]: over 50 µM.
